{
  "source": "patent US9750817B2",
  "about": "“Amphotericin B derivatives” (priority 2015, dated 2017)",
  "key": {"[1]": {"assay": "Solubility in double-distilled water", "format": "physicochemical", "experimental": "Physical characteristics of AMB derivatives and of AMB were tested, including solubility."}, "[2]": {"test_system": "Aspergillus fumigatus", "assay": "MIC/MFC broth dilution (CLSI), clinical isolates", "format": "cell-based", "settings": "A. fumigatus", "experimental": "(§1) Isolates of Aspergillus fumigatus, Aspergillus flavus, Aspergillus terreus Aspergillus niger, Rhizopus oryzae, Candida albicans and Candida krusei were isolated from patients in Israeli hospitals and used for in vitro efficacy studies.\n(§2) Efficacy was evaluated by measuring minimum inhibitory concentration (MIC) and minimum fungicidal concentration (MFC) values for fungal isolates. Testing of isolates was performed according to the Clinical & Laboratory Standards Institute (CLSI) method. (CLSI. 2008. M27-A3 Reference method for broth dilution antifungal susceptibility testing of yeasts; Approved Standard—3rd edition. Clinical and Laboratory Standards Institute, Wayne). RPMI MOPS media was used throughout the experiment as growth and dilution media. Spores and yeast cells were harvested in 0.05% Tween from 24-48 h and cultures were grown in rich yeast extract-agar-glucose (YAG) medium (composed of: 0.5% w/v yeast extract, 1% w/v glucose, 10 millimolar (mM) MgCl2, supplemented with 0.1% v/v trace elements solution, and 0.2% v/v vitamin mix). The spores and the yeast cells were counted and diluted to a final concentration of 2.5×10^4 per ml. A stock solution of 5 mg/ml was prepared in dimethylsulfoxide for free AMB. Compounds 4 and 6 were prepared in sterile saline. Double dilutions of each drug were performed in 100 μL volume of RPMI-MOPS in 96 well plates beginning with a final concentration of 32 micrograms (μg)/well of each drug to 0.06 μg/well. 2500 spores or yeast cells were added to each well. Results were recorded 48 h post incubation at 37° C. […] The MFC was defined as the lowest drug concentration that yielded three or fewer colonies (i.e. 99% of the inoculum was killed)."}, "[3]": {"assay": "Solubility in 0.9% saline after vortex, sonication and centrifuge", "format": "physicochemical"}, "[4]": {"test_system": "mouse embryonic fibroblasts (MEFs)", "assay": "MTT viability assay in mouse embryonic fibroblasts", "format": "cell-based", "experimental": "Reference is made to FIG. 4C. Mouse embryonic fibroblasts were used in this example. 1×10^4 mouse embryonic fibroblasts (MEFs) per well were seeded in 96-well plates and incubated at 37° C. After 24 h the media was replaced with 100 μl culture medium containing serial dilutions of AMB, compounds 4 or 6, or left untreated. After 24 h, the media was replaced by fresh media (100 μl per well) containing 1 mg/ml MTT (3-(4,5-Dimethylthiazol-2-yl)-2,5-Diphenyltetrazolium Bromide, ((Biological Industries, Israel)) reagent and the cells were incubated for an additional 3 h at 37° C. MTT-formazan crystals were dissolved by the addition of 100 μl per well of extraction solution (20% SDS, 50% N,N-dimethyl formamide (DMF), pH=4.7) and incubation for 16 h at 37° C. Absorbance at 570 nm was recorded on a Biotek Synergy HT plate reader.\nThe results were expressed as the percentage of living cells relative to the untreated control and are depicted in FIG. 4C. The inhibition concentration (IC50) value is the concentration of the compound which inhibited cell growth by 50%."}, "[5]": {"test_system": "ICR mice", "assay": "In vivo toxicity, intravenous injection", "settings": "female ICR mice, intravenous", "experimental": "In-vivo toxicity was determined in mice using 6 week old female ICR mice (n=6). Different concentrations of each formulation were injected intravenously through the tail vein, 0.2 ml per mouse, until death was observed. PAD-AMB conjugates were prepared in sterile saline solution and were filtered through 0.45-micrometer pore-size cellulose acetate sterile filters prior to injection."}, "[6]": {"test_system": "Candida krusei", "assay": "MIC/MFC broth dilution (CLSI), clinical isolates", "format": "cell-based", "settings": "C. krusei, 3 isolates, 48 h at 37° C.", "experimental": "as §1, §2"}, "[7]": {"test_system": "Rhizopus oryzae", "assay": "MIC/MFC broth dilution (CLSI), clinical isolates", "format": "cell-based", "settings": "1 isolate, 48 h at 37° C.", "experimental": "as §1, §2"}, "[8]": {"test_system": "Aspergillus flavus", "assay": "MIC/MFC broth dilution (CLSI), clinical isolates", "format": "cell-based", "settings": "A. Flavus, 3 isolates, 48 h at 37° C.", "experimental": "as §1, §2"}, "[9]": {"test_system": "Aspergillus terreus", "assay": "MIC/MFC broth dilution (CLSI), clinical isolates", "format": "cell-based", "settings": "listed as printed C. terreus, 1 isolate, 48 h at 37° C.", "experimental": "as §1, §2"}, "[10]": {"test_system": "Candida albicans", "assay": "MIC/MFC broth dilution (CLSI), clinical isolates", "format": "cell-based", "settings": "C. albicans, 2 isolates, 48 h at 37° C.", "experimental": "as §1, §2"}, "[11]": {"test_system": "Aspergillus niger", "assay": "MIC/MFC broth dilution (CLSI), clinical isolates", "format": "cell-based", "settings": "A. niger, 3 isolates, 48 h at 37° C.", "experimental": "as §1, §2"}, "[12]": {"assay": "Stability (hydrolysis) in phosphate buffered saline", "format": "physicochemical"}, "[13]": {"test_system": "human erythrocytes", "assay": "In-vitro toxicity (hemolysis) study", "format": "cell-based", "settings": "6 μg/ml", "experimental": "Reference is made to FIG. 4B. Fresh human erythrocytes were diluted 1:100 in PBS, and incubated in an Eppendorf tube while rotating slowly in the presence of 6 μg/ml of each of compound 4 and compound 6. Amphotericin B was used as positive control. Sterile double distilled water served as a control for 100% hemolysis. After 1, 3, 5 and 21 h, 20 μl of each test tube were removed and diluted in 180 μl PBS. Samples were centrifuged for 10 minutes at 1200 RPM and the optical density of the supernatant was measured at 425 nm."}, "[14]": {"test_system": "C. albicans (CBS562)", "assay": "MIC of compound 6, AMB and FMOC-6", "format": "cell-based, Candida albicans", "experimental": "as §2\n(§3) In addition, the amine protected equivalent of compound 6 in which the amine of compound 6 was protected with an FMOC group was tested (designated FMOC-6) to determine MIC versus AMB and versus compound 6 against A. fumigatus (Af 293) and C. albicans (CBS562)."}, "[15]": {"test_system": "A. fumigatus (Af 293)", "assay": "MIC of compound 6, AMB and FMOC-6", "format": "cell-based, Aspergillus fumigatus", "experimental": "as §2, §3"}},
  "note": "Like-named read-outs stand apart in the source and are kept apart here.",
  "data": [
    {"smiles": "CC1C=CC=CC=CC=CC=CC=CC=CC(OC2OC(C)C(O)C(NC(=O)CCOCCOCCOCCOCCN)C2O)CC2OC(O)(CC(O)CC(O)C(O)CCC(O)CC(O)CC(=O)OC(C)C(C)C1O)CC(O)C2C(=O)O", "note": "(centres unmarked) [AMB-PEG4-amine]", "values": [
      {"measurement": "Solubility", "setting": "[1]; double-distilled water", "result": 0.3, "unit": "mg/mL"},
      {"measurement": "MIC", "setting": "[2]; strain not stated", "result": "2 to 3", "unit": "µg/mL"}
    ]},
    {"smiles": "COC(=O)C1C(O)CC2(O)CC(O)CC(O)C(O)CCC(O)CC(O)CC(=O)OC(C)C(C)C(O)C(C)C=CC=CC=CC=CC=CC=CC=CC(OC3OC(C)C(O)C(NC(=O)CCOCCOCCOCCOCCN)C3O)CC1O2", "note": "(centres unmarked) [AME-PEG4-amine]", "values": [
      {"measurement": "Solubility", "setting": "[1]", "result": "Insoluble"}
    ]},
    {"smiles": "COC(=O)[C@H]1[C@@H]2C[C@@H](O[C@@H]3O[C@H](C)[C@@H](O)[C@H](N)[C@@H]3O)/C=C/C=C/C=C/C=C/C=C/C=C/C=C/[C@H](C)[C@@H](O)[C@@H](C)[C@H](C)OC(=O)C[C@H](O)C[C@H](O)CC[C@@H](O)[C@H](O)C[C@H](O)C[C@](O)(C[C@@H]1O)O2", "note": "[Amphotericin B methyl ester, reference compound]", "values": [
      {"measurement": "Solubility", "setting": "[1]", "result": "<0.001", "unit": "mg/mL"}
    ]},
    {"smiles": "C[C@@H]1[C@H](O)[C@@H](C)/C=C/C=C/C=C/C=C/C=C/C=C/C=C/[C@H](O[C@@H]2O[C@H](C)[C@@H](O)[C@H](NC(=O)CCOCCOCCOCCOCCOCCOCCOCCOCCN)[C@@H]2O)C[C@@H]2O[C@](O)(C[C@@H](O)C[C@@H](O)[C@H](O)CC[C@@H](O)C[C@@H](O)CC(=O)O[C@H]1C)C[C@H](O)[C@H]2C(=O)O", "note": "[Compound 4, amphotericin B amide-PEG(8)-amine]", "values": [
      {"measurement": "increased solubility relative to corresponding non-PEG-conjugated AMB compounds", "setting": "[3]", "result": "greater than 5500 fold"},
      {"measurement": "Solubility", "setting": "[1]; double-distilled water", "result": 5.5, "unit": "mg/mL"},
      {"measurement": "IC50 (concentration which inhibited cell growth by 50%)", "setting": "[4]; 24 h exposure, MTT", "result": 280, "unit": "µg/mL"},
      {"measurement": "times less toxic than AMB", "setting": "[4]; from IC50", "result": 40, "unit": "times"},
      {"measurement": "mouse LD50 fold higher than AMB", "setting": "[5]", "result": "at least 20 fold"},
      {"measurement": "signs of toxicity at the highest injectable doses", "setting": "[5]", "result": "did not show any signs of toxicity"},
      {"measurement": "LD50", "setting": "[5]; tail vein", "result": "not reached"},
      {"measurement": "Maximum Dose", "setting": "[5]; tail vein", "result": 22, "unit": "mg/kg"},
      {"measurement": "MFC", "setting": "[6]", "result": 8, "unit": "µg/mL"},
      {"measurement": "MIC", "setting": "[6]", "result": "4 to 8", "unit": "µg/mL"},
      {"measurement": "MFC", "setting": "[7]", "result": 8, "unit": "µg/mL"},
      {"measurement": "MIC", "setting": "[7]", "result": 8, "unit": "µg/mL"},
      {"measurement": "MFC", "setting": "[8]", "result": "4 to 8", "unit": "µg/mL"},
      {"measurement": "MIC", "setting": "[8]", "result": "4 to 8", "unit": "µg/mL"},
      {"measurement": "MFC", "setting": "[2]; 4 isolates, 48 h at 37° C.", "result": "4 to 16", "unit": "µg/mL"},
      {"measurement": "MIC", "setting": "[2]; 4 isolates, 48 h at 37° C.", "result": "4 to 16", "unit": "µg/mL"},
      {"measurement": "MFC", "setting": "[9]", "result": 32, "unit": "µg/mL"},
      {"measurement": "MIC", "setting": "[9]", "result": 32, "unit": "µg/mL"},
      {"measurement": "MFC", "setting": "[10]", "result": 4, "unit": "µg/mL"},
      {"measurement": "MIC", "setting": "[10]", "result": "1 to 2", "unit": "µg/mL"},
      {"measurement": "MFC", "setting": "[11]", "result": "1 to 4", "unit": "µg/mL"},
      {"measurement": "MIC", "setting": "[11]", "result": "1 to 4", "unit": "µg/mL"},
      {"measurement": "hydrolysis after 4 hours", "setting": "[12]; 4 hours", "result": "no hydrolysis could be observed"},
      {"measurement": "level of hydrolysis after 24 hours", "setting": "[12]; 24 hours", "result": 0.51, "unit": "%"},
      {"measurement": "hemolytic activity", "setting": "[13]; after 3 h of agitation", "result": "small hemolytic activity"},
      {"measurement": "toxicity to erythrocytes", "setting": "[13]; assay conditions of FIG. 4B", "result": "less toxic (about four times less)"}
    ]},
    {"smiles": "COC(=O)C1C(O)CC2(O)CC(O)CC(O)C(O)CCC(O)CC(O)CC(=O)OC(C)C(C)C(O)C(C)C=CC=CC=CC=CC=CC=CC=CC(OC3OC(C)C(O)C(NC(=O)CCOCCOCCOCCOCCOCCOCCOCCOCCNC(=O)OCC4c5ccccc5-c5ccccc54)C3O)CC1O2", "note": "(centres unmarked) [FMOC-6]", "values": [
      {"measurement": "MIC", "setting": "[14]", "result": ">32", "unit": "µg/mL"},
      {"measurement": "MIC", "setting": "[15]", "result": ">32", "unit": "µg/mL"}
    ]}
  ]
}
